Results on 21 molecules are retold here after patent publication US10414763B2 (CANCER RESEARCH TECHNOLOGY LIMITED, priority 2014, dated 2019).

Some results are limits rather than exact numbers.

The test concerns the target T1, full-length human PKCι (Homo sapiens, UniProt P41743).
T1 construct: Recombinant, full-length human PKCι expressed in Sf21 insect cells is also commercially available; purchased EMD Millipore; host or cells: Sf21 insect cells (baculovirus)
T1 sequence (P41743 1-596): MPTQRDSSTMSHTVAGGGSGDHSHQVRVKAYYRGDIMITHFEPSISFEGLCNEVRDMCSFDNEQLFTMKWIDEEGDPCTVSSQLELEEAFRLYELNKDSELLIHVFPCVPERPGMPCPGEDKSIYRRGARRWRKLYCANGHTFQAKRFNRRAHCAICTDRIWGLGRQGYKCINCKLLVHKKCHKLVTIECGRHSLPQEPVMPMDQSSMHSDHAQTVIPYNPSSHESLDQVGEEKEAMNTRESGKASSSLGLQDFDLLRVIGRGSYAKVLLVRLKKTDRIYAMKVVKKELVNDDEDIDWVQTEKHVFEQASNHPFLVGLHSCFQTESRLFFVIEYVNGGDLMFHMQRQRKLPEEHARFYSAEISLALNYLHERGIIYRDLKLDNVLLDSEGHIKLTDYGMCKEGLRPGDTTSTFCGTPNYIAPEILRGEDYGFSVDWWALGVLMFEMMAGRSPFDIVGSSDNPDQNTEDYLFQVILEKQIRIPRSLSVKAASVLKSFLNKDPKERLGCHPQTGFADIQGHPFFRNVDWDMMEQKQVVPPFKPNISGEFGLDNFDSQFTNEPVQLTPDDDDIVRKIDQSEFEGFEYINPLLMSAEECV
In words: PKCι IC50 IMAP fluorescence polarisation assay, full-length enzyme, 150 μM ATP. To be noted: read-out: IC50 in IMAP assay against full length PKCi at 150 μM ATP. It is filed as biochemical. In a few lines:
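IMAP fluorescence polarisation kinase assay: 15 pM baculovirus-expressed human PKCiota with 100 nM FAM-pseudosubstrate peptide and 150 μM ATP, 1 h at 25 °C. IMAP detection reagent then 2 h at 25 °C before FP measurement. Inhibition referenced to no-compound and no-enzyme controls for IC50 fitting.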

Turning to `CC1(C)CNCC[C@@H]1Nc1nc(-c2ccnc3[nH]c(-c4cncc(F)c4)cc23)nc2cncc(C3CCC3)c12` [Example 370, {5-Cyclobutyl-2-[2-(5-fluoro-pyridin-3-yl)-1H-pyrrolo[2,3-b]pyridin-4-yl]-pyrido[3,4-d]pyrimidin-4-yl}-((S)-3,3-dimethyl-piperidin-4-yl)-amine], the concentration for half-maximal inhibition (IC50) is below 100 nM.
The value for `CC1(C)CNCC[C@@H]1Nc1nc(-c2ccnc(Nc3c(F)cccc3F)c2)nc2cncc(C3CC3)c12` [Example 254, {5-Cyclopropyl-2-[2-(2,6-difluoro-phenylamino)-pyridin-4-yl]-pyrido[3,4-d]pyrimidin-4-yl}-((S)-3,3-dimethyl-piperidin-4-yl)-amine] was below 100 nM; that for `CN(c1nc(-c2ccnc3[nH]c4ccccc4c23)nc2cncc(C3CCC3)c12)C1CC(N)C1` (stereo not drawn) [Example 74, N-[5-Cyclobutyl-2-(9H-pyrido[2,3-b]indol-4-yl)-pyrido[3,4-d]pyrimidin-4-yl]-N-methyl-cyclobutane-1,3-diamine] was below 100 nM; that for `Cc1cc2c(-c3nc(N(C)C4CCNCC4(C)C)c4c(C5CCC5)cncc4n3)ccnc2[nH]1` (stereo not drawn) [Example 116, [5-Cyclobutyl-2-(2-methyl-1H-pyrrolo[2,3-b]pyridin-4-yl)-pyrido[3,4-d]pyrimidin-4-yl]-(3,3-dimethyl-piperidin-4-yl)-methyl-amine] was below 100 nM.
For `CN(C)CC#Cc1cc2c(-c3nc(N4CCNCC4)c4c(C5CCC5)cncc4n3)ccnc2[nH]1` [Example 55, {3-[4-(5-Cyclobutyl-4-piperazin-1-yl-pyrido[3,4-d]pyrimidin-2-yl)-1H-pyrrolo[2,3-b]pyridin-2-yl]-prop-2-ynyl}-dimethyl-amine] the value was below 100 nM; for `C[C@H]1CNCC[C@@H]1Nc1nc(-c2ccnc(Nc3nc(F)ccc3F)c2)nc2cncc(C3CC3)c12` (single isomer, unassigned) [Example 334, 5-Cyclopropyl-2-[2-[(3,6-difluoro-2-pyridyl)amino]-4-pyridyl]-N-[(3S,4S)-3-methyl-4-piperidyl]pyrido[3,4-d]pyrimidin-4-amine or enantiomer], below 100 nM.
The value for `NC1CCN(c2nc(-c3ccnc4[nH]c5ccccc5c34)nc3cncc(C(F)(F)F)c23)C1` (stereo not drawn) [Example 221, 1-[2-(9H-Pyrido[2,3-b]indol-4-yl)-5-trifluoromethyl-pyrido[3,4-d]pyrimidin-4-yl]-pyrrolidin-3-ylamine] was 100 to 1000 nM; that for `COc1cccc(Nc2cc(-c3nc(N[C@H]4CCNCC4(C)C)c4c(C5CCC5)cncc4n3)ccn2)n1` [Example 383, {5-Cyclobutyl-2-[2-(6-methoxy-pyridin-2-ylamino)-pyridin-4-yl]-pyrido[3,4-d]pyrimidin-4-yl}-((S)-3,3-dimcthyl-piperidin-4-yl)-amine] was below 100 nM; that for `CC1(C)CNCC[C@@H]1Nc1nc(-c2cccc(Nc3ccccn3)c2)nc2cncc(C3CCC3)c12` [Example 321, {5-Cyclobutyl-2-[3-(pyridin-2-ylamino)-phenyl]-pyrido[3,4-d]pyrimidin-4-yl}-((S)-3,3-dimethyl-piperidin-4-yl)-amine] was 100 to 1000 nM.
As for `CNC(=O)c1cc2c(-c3nc(N4CCC5CNCCC54)c4c(C5CC5)cncc4n3)ccnc2[nH]1` (stereo not drawn) [Example 99, 4-[5-Cyclopropyl-4-(octahydro-pyrrolo[3,2-c]pyridin-1-yl)-pyrido[3,4-d]pyrimidin-2-yl]-1H-pyrrolo[2,3-b]pyridine-2-carboxylic acid methylamide], the 50% inhibitory concentration (IC50) was below 100 nM.
For `CC1(C)CNCC[C@@H]1Nc1nc(-c2ccnc3[nH]c(C(=O)N4CCC4)cc23)nc2cncc(C3CC3)c12` [Example 366, Azetidin-1-yl-[4-[5-cyclopropyl-4-[[(4S)-3,3-dimethyl-4-piperidyl]amino]pyrido [3,4-d]pyrimidin-2-yl]-1H-pyrrolo[2,3-b]pyridin-2-yl]methanone] the value was below 100 nM; for `CNC(=O)c1cc2c(-c3nc(N4CCNCC4)c4c(C5CC5)cncc4n3)ccnc2[nH]1` [Example 79, 4-(5-Cyclopropyl-4-piperazin-1-yl-pyrido[3,4-d]pyrimidin-2-yl)-1H-pyrrolo[2,3-b]pyridine-2-carboxylic acid methylamide], below 100 nM; for `CC1(C)CNCC[C@@H]1Nc1nc(-c2ccnc3[nH]c(C(F)(F)F)cc23)nc2cncc(C3CC3)c12` [Example 227, [5-Cyclopropyl-2-(2-trifluoromethyl-1H-pyrrolo[2,3-b]pyridin-4-yl)-pyrido[3,4-d]pyrimidin-4-yl]-((S)-3,3-dimethyl-piperidin-4-yl)-amine], below 100 nM.
The value for `Cc1cc2c(-c3nc(N4CC[C@H]5NCC[C@H]54)c4c(C5CC5)cncc4n3)ccnc2[nH]1` (racemic) [Example 82, (±)-5-Cyclopropyl-4-(3,6-cis)-hexahydro-pyrrolo[3,2-b]pyrrol-1-yl-2-(2-methyl-1H-pyrrolo[2,3-b]pyridin-4-yl)-pyrido[3,4-d]pyrimidine] was below 100 nM; that for `C[C@@H]1C[C@@H](Nc2nc(-c3ccnc(Nc4nc(F)ccc4F)c3)nc3cncc(C4CC4)c23)CCN1` (racemic) [Example 226, (±)-{5-Cyclopropyl-2-[2-(3,6-difluoro-pyridin-2-ylamino)-pyridin-4-yl]-pyrido[3,4-d]pyrimidin-4-yl}-((2,4-trans)-2-methyl-piperidin-4-yl)-amine] was 100 to 1000 nM; that for `Cc1cc2c(-c3nc(N4CCOC5CNCC54)c4c(C5CCC5)cncc4n3)ccnc2[nH]1` (stereo not drawn) [Example 257, 5-Cyclobutyl-4-(hexahydro-pyrrolo[3,4-b]-1,4-oxazin-4-yl)-2-(2-methyl-1H-pyrrolo[2,3-b]pyridin-4-yl)-pyrido[3,4-d]pyrimidine] was below 100 nM.
Consider `Clc1ccc(-c2cc3c(-c4nc(N5CCNCC5)c5c(C6CC6)cncc5n4)ccnc3[nH]2)cc1` [Example 139, 2-[2-(4-Chloro-phenyl)-1H-pyrrolo[2,3-b]pyridin-4-yl]-5-cyclopropyl-4-piperazin-1-yl-pyrido[3,4-d]pyrimidine], for which the IC50 was below 100 nM.
For `CN(c1nc(-c2ccnc(Nc3nc(F)ccc3F)c2)nc2cncc(C3CC3)c12)[C@H]1CCNCC1(C)C` [Example 331, 5-Cyclopropyl-2-[2-[(3,6-difluoro-2-pyridyl)amino]-4-pyridyl]-N-[(4S)-3,3-dimethyl-4-piperidyl]-N-methyl-pyrido[3,4-d]pyrimidin-4-amine] the value was below 100 nM; for `c1ccc(Sc2cc3c(-c4nc(N5CCNCC5)c5c(C6CC6)cncc5n4)ccnc3[nH]2)cc1` [Example 14, 5-Cyclopropyl-2-(2-phenylsulfanyl-1H-pyrrolo[2,3-b]pyridin-4-yl)-4-piperdzin-1-yl-pyrido[3,4-d] pyrimidine], below 100 nM; for `C[C@H]1CNCC[C@H]1Nc1nc(-c2ccnc3[nH]c4ccccc4c23)nc2cncc(C3CCC3)c12` (racemic) [Example 347, [5-Cyclobutyl-2-(9H-pyrido[2,3-b]indol-4-yl)-pyrido[3,4-d]pyrimidin-4-yl]-(rac-(3S,4R)-3-methyl-piperidin-4-yl)-amine], below 100 nM.
The value for `CN(c1nc(-c2ccnc3[nH]c4ccccc4c23)nc2cncc(C3CC3)c12)[C@@H]1CCNC[C@@]1(C)O` (racemic) [Example 114, (±)-(3,4-trans)-4-{[5-Cyclopropyl-2-(9H-pyrido[2,3-b]indol-4-yl)-pyrido[3,4-d]pyrimidin-4-yl]-methyl-amino}-3-methyl-piperidin-3-ol] was below 100 nM.
